Source: patent US20240425492A1, “POLYMORPHS AS ERBB INHIBITORS” (Black Diamond Therapeutics, Inc., priority 2021, published 2024)
Values after ≈ are worked out from the molar mass of the structure shown. Like-named read-outs stand apart in the source and are kept apart here.

Key:
[1] = Bulk stability under accelerated storage conditions (XRPD and HPLC); settings: Solid state
Text: Solids obtained after bulk stability study were characterized by XRPD and HPLC.

physchem = settings: 37 °C, thermodynamic from solid
Method: (§1) 2.01 mg of the free base Form C (equal to 2 mg free base after correction for water content) was weighed into 2 mL vial. 2.09 mg of the free base Form F (equal to 2 mg free base after correction for water content) was weighed into a 2 mL vial. I mL of aqueous media was added, respectively. These suspensions were stirred at 37° C. at a rate of 400 rpm. These suspensions were taken out after 2 h and 24 h, and then centrifuged at 14,000 rpm for 5 minutes. The supernatants were analyzed by HPLC. The pH of the supernatants were tested.

[2] = Solubility study in aqueous media at 37° C. (HPLC of supernatants, pH)
Method: as §1

[3] = Hygroscopicity by DVS at 25° C.; format: physicochemical; settings: for Desorp. (%) / Sorp. (%): DVS 25° C.
Method: Dynamic Vapor Sorption (DVS): DVS analysis was performed using Intrinsic. Analysis was performed using parameters as set forth below.
The hygroscopicity for Form C and Form F was examined. See, e.g., Table E.

[4] = Variable relative humidity XRPD experiments for Form F; format: physicochemical
Text: Protocol 9: Variable relative humidity experiment. Form F was investigated by variable humidity XRPD experiments. […] Form L reverted to Form F in >10% RH. […] See Example 8 for more details.
Form F was investigated by variable humidity XRPD experiments.

[5] = 25° C./92.5% RH in an open vial, 2 weeks
[6] = 25° C./92.5% RH in an open vial, 4 weeks
[7] = 40° C./75% RH in an open vial, 2 weeks
[8] = 40° C./75% RH in an open vial, 4 week
[9] = 60° C., tight container, 2 weeks
[10] = 60° C., tight container, 4 weeks
[11] = pH 6.8 (50 mM) phosphate buffer, 37° C.

Bulk (XRPD) [1, 5]: No form change
Purity, Bulk (HPLC) [1, 5]: 95.5%
Bulk (XRPD) [1, 6]: No form change
Purity, Bulk (HPLC) [1, 6]: 94.1%
Bulk (XRPD) [1, 7]: No form change
Purity, Bulk (HPLC) [1, 7]: 94.3%
Bulk (XRPD) [1, 8]: No form change
Purity, Bulk (HPLC) [1, 8]: 91.6%
Bulk (XRPD) [1, 9]: No form change
Purity, Bulk (HPLC) [1, 9]: 90.1%
Bulk (XRPD) [1, 10]: No form change
Purity, Bulk (HPLC) [1, 10]: 82.6%
solubility (physchem; pH 1, simulated gastric fluid): > 2000 µg/mL
solubility at 2 h (physchem; pH 1, simulated gastric fluid): > 2000 µg/mL
solubility at 24 h (physchem; pH 1, simulated gastric fluid): > 2000 µg/mL
solubility (physchem; pH 2, simulated gastric fluid): > 2000 µg/mL
solubility at 2 h (physchem; pH 2, simulated gastric fluid): > 2000 µg/mL
solubility at 24 h (physchem; pH 2, simulated gastric fluid): > 2000 µg/mL
solubility (physchem; pH 4.5, aqueous buffer): > 2000 µg/mL
solubility at 2 h (physchem; pH 4.5, aqueous buffer): > 2000 µg/mL
solubility at 24 h (physchem; pH 4.5, aqueous buffer): > 2000 µg/mL
solubility (physchem; pH 6.8, aqueous buffer): ~20 µg/mL (≈ 35.6 µM)
solubility at 2 h (physchem; pH 6.8, aqueous buffer): 20.7 µg/mL (≈ 36.9 µM)
solubility at 24 h (physchem; pH 6.8, aqueous buffer): 19.8 µg/mL (≈ 35.3 µM)
solubility (physchem; water): < 10 µg/mL
solubility at 2 h (physchem; water): 7 µg/mL (≈ 12.5 µM)
solubility at 24 h (physchem; water): 7.5 µg/mL (≈ 13.4 µM)
24 h (pH) of supernatant ([2]; SGF, pH 2.0, 37° C.): pH 3.5
XRPD of residual solid ([2]; Water, 37° C.): Form F
24 h (pH) of supernatant ([2]; Water, 37° C.): pH 7.0
24 h (pH) of supernatant ([2]; pH 1.0 (0.1N HCl), 37° C.): pH 0.9
24 h (pH) of supernatant ([2]; pH 4.5 (50 mM) acetate buffer, 37° C.): pH 4.6
XRPD of residual solid [2, 11]: Form F
24 h (pH) of supernatant [2, 11]: pH 6.7
DVS water uptake from 40% RH to 70% RH ([3]; 25° C., dm/dt = 0.002%): 1.1% water uptake from 40% RH to 70% RH
DVS water uptake from 40% RH to 95% RH ([3]; 25° C., dm/dt = 0.002%): 10.2% water uptake from 40% RH to 95% RH
Desorp. (%) ([3]; Relative Humidity 0%, first Desorp.): 0.0%
Sorp. (%) ([3]; Relative Humidity 0%, second Sorp.): 0.0%
Desorp. (%) ([3]; Relative Humidity 10%, first Desorp.): 1.4%
Sorp. (%) ([3]; Relative Humidity 10%, second Sorp.): 1.3%
Desorp. (%) ([3]; Relative Humidity 20%, first Desorp.): 1.9%
Sorp. (%) ([3]; Relative Humidity 20%, second Sorp.): 1.7%
Desorp. (%) ([3]; Relative Humidity 30%, first Desorp.): 3.6%
Sorp. (%) ([3]; Relative Humidity 30%, second Sorp.): 2.1%
Desorp. (%) ([3]; Relative Humidity 40%, first Desorp.): 6.3%
Sorp. (%) ([3]; Relative Humidity 40%, first Sorp.): 2.5%
Desorp. (%) ([3]; Relative Humidity 40%, second Desorp.): 6.4%
Sorp. (%) ([3]; Relative Humidity 40%, second Sorp.): 2.8%
Desorp. (%) ([3]; Relative Humidity 50%, first Desorp.): 8.0%
Sorp. (%) ([3]; Relative Humidity 50%, first Sorp.): 2.8%
Desorp. (%) ([3]; Relative Humidity 50%, second Desorp.): 7.9%
Sorp. (%) ([3]; Relative Humidity 50%, second Sorp.): 3.2%
Desorp. (%) ([3]; Relative Humidity 60%, first Desorp.): 9.4%
Sorp. (%) ([3]; Relative Humidity 60%, first Sorp.): 3.2%
Desorp. (%) ([3]; Relative Humidity 60%, second Desorp.): 9.3%
Sorp. (%) ([3]; Relative Humidity 60%, second Sorp.): 3.7%
Desorp. (%) ([3]; Relative Humidity 70%, first Desorp.): 10.2%
Sorp. (%) ([3]; Relative Humidity 70%, first Sorp.): 3.6%
Desorp. (%) ([3]; Relative Humidity 70%, second Desorp.): 10.0%
Sorp. (%) ([3]; Relative Humidity 70%, second Sorp.): 4.2%
Desorp. (%) ([3]; Relative Humidity 80%, first Desorp.): 11.0%
Sorp. (%) ([3]; Relative Humidity 80%, first Sorp.): 10.4%
Desorp. (%) ([3]; Relative Humidity 80%, second Desorp.): 10.8%
Sorp. (%) ([3]; Relative Humidity 80%, second Sorp.): 10.4%
Desorp. (%) ([3]; Relative Humidity 90%, first Desorp.): 11.8%
Sorp. (%) ([3]; Relative Humidity 90%, first Sorp.): 11.6%
Desorp. (%) ([3]; Relative Humidity 90%, second Desorp.): 11.6%
Sorp. (%) ([3]; Relative Humidity 90%, second Sorp.): 11.4%
Desorp. (%) ([3]; Relative Humidity 95%, first Desorp.): 12.9%
Sorp. (%) ([3]; Relative Humidity 95%, first Sorp.): 12.7%
Desorp. (%) ([3]; Relative Humidity 95%, second Desorp.): 12.2%
Sorp. (%) ([3]; Relative Humidity 95%, second Sorp.): 12.2%
XRPD after DVS test ([3]; DVS at 25° C.): No form change
XRPD (form observed) ([4]; 0% RH (12 h), step 8 of humidity sequence): Form L (Only stable in low humidity)
XRPD (form observed) ([4]; 0% RH (24 h), step 9 of humidity sequence): Form L (Only stable in low humidity)
XRPD (form observed) ([4]; 10% RH, step 7 of humidity sequence): Form F
XRPD (form observed) ([4]; 10% RH, step 10 of humidity sequence): Form F
XRPD (form observed) ([4]; 40% RH, step 1 of humidity sequence): Form F
XRPD (form observed) ([4]; 40% RH, step 6 of humidity sequence): Form F
XRPD (form observed) ([4]; 40% RH, step 11 of humidity sequence): Form F
XRPD (form observed) ([4]; 70% RH, step 2 of humidity sequence): Form F
XRPD (form observed) ([4]; 70% RH, step 5 of humidity sequence): Form F
XRPD (form observed) ([4]; 90% RH (3 h), step 3 of humidity sequence): Form F
XRPD (form observed) ([4]; 90% RH (6 h), step 4 of humidity sequence): Form F
2 h Solubility (pH 5): Degradation
24 h Solubility (pH 5): Degradation
2 h Solubility (pH 6.5): Degradation
24 h Solubility (pH 6.5): Degradation
SMILES: CN1C[C@H]2C[C@@]2(C#Cc2cc3ncnc(Nc4cccc(Cl)c4F)c3cc2NC(=O)/C=C/CN2CCOCC2)C1 [Form F]
form conversion in variable humidity XRPD ([4]; 0% RH): converted to a new crystalline form, assigned as Form L
